In US9561228B2 (Celgene Avilomics Research, Inc., priority 2013, dated 2017) one finds EC50 data, which are given here for 13 compounds.

Structures are written as SMILES.

The first test relates to ERK1/2 phosphorylation of p90RSK in HT29 cells. In words: pRSK MSD Assay in HT29 cells. It counts as cell-based. The settings on record: Homo sapiens, HT-29, read-out: ERK1/ERK2 PRSK MSD HT29 EC50. The gist of the method:
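Phospho-RSK level, read by electrochemiluminescence on RSK-antibody-coated MSD plates with a phospho-RSK/Sulfo-tag detection pair, reports cellular ERK1/2 activity. HT29 cells, kept overnight in 0.1% FBS medium, were exposed to compound for 120 min at 37° C before lysis.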
In the case of `C=CC(=O)Nc1ccccc1Nc1nc(N[C@H]2CCN(C(C)=O)C2)ncc1C(F)(F)F` [Compound I-56, (S)—N-(2-((2-((1-Acetylpyrrolidin-3-yl)amino)-5-(trifluoromethyl)pyrimidin-4-yl)amino)phenyl)acrylamide], the EC50 is 101 to 500 nM.
Same read-out and setting: under `C=CC(=O)Nc1ccccc1Nc1nc(N[C@H]2CCN(C(=O)CO)C2)ncc1C(F)(F)F` [Compound I-57, (S)—N-(2-((2-((1-(2-Hydroxyacetyl)pyrrolidin-3-yl)amino)-5-(trifluoromethyl)pyrimidin-4-yl)amino)phenyl)acrylamide] stands 101 to 500 nM.
Take `C=CC(=O)Nc1ccccc1Nc1nc(N[C@H]2CCN(S(C)(=O)=O)C2)ncc1C(F)(F)F` [Compound I-58, (S)—N-(2-((2-((1-(Methylsulfonyl)pyrrolidin-3-yl)amino)-5-(trifluoromethyl)pyrimidin-4-yl)amino)phenyl)acrylamide]: the EC50 was in the range of 101 to 500 nM.
The same measure, in the same setting: in the case of `C=CC(=O)Nc1ccccc1Nc1nc(N[C@H]2CCN(C(=O)OC)C2)ncc1C(F)(F)F` [Compound I-59, (S)-methyl 3-((4-((2-Acrylamidophenyl)amino)-5-(trifluoromethyl)pyrimidin-2-yl)amino)pyrrolidine-1-carboxylate] it was over 1000 nM.
With `C=CC(=O)Nc1ccccc1Nc1nc(N[C@@H]2CCN(C(C)=O)C2)ncc1C(F)(F)F` [Compound I-60, (R)—N-(2-((2-((1-Acetylpyrrolidin-3-yl)amino)-5-(trifluoromethyl)pyrimidin-4-yl)amino)phenyl)acrylamide], the EC50 is over 1000 nM.
The same measure, in the same setting: under `C=CC(=O)Nc1ccccc1Nc1nc(N[C@H]2CCCN(C(C)=O)C2)ncc1Cl` [Compound I-115, (S)—N-(2-((2-((1-acetylpiperidin-3-yl)amino)-5-chloropyrimidin-4-yl)amino)phenyl)acrylamide] stands under 100 nM; under `C=CC(=O)Nc1cc(C)ccc1Nc1nc(Nc2cc(C(N)=O)ccn2)ncc1Cl` [Compound I-238, 2-((4-((2-acrylamido-4-methylphenyl)amino)-5-chloropyrimidin-2-yl)amino)isonicotinamide], under 100 nM; under `C=CC(=O)Nc1cc(OC)ccc1Nc1nc(Nc2cc(Cl)nc(OC)c2)ncc1Cl` [Compound I-245, N-(2-((5-chloro-2-((2-chloro-6-methoxypyridin-4-yl)amino)pyrimidin-4-yl)amino)-5-methoxyphenyl)acrylamide], under 100 nM.
The same measure, in the same setting: in the case of `C=CC(=O)Nc1ccccc1Nc1nc(Nc2cc(Cl)nc(OC)c2)ncc1Cl` [Compound I-246, N-(2-((5-chloro-2-((2-chloro-6-methoxypyridin-4-yl)amino)pyrimidin-4-yl)amino)phenyl)acrylamide] it was under 100 nM.

In a further test the test system is ERK1/2 phosphorylation of p90RSK in A375 cells. In words: Detection of total and phosphor-RSK by MSD ELISA (A375). The class given is cell-based. The following applies: Homo sapiens, A-375, read-out: ERK1/ERK2 PRSK A375 EC50. In outline:
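Electrochemiluminescent MSD ELISA: common RSK capture antibody, with pRSK Ser380 or total RSK detection antibodies plus SulfoTag secondaries. Samples were lysates of A375 cells exposed to compound for 2 h at 37° C after overnight culture in 0.1% FBS DMEM.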
On the technique in general: ELISA stands for enzyme-linked immunosorbent assay.
In the case of `C=CC(=O)Nc1ccccc1Nc1nc(Nc2cc(N[C@H]3CC[C@@H](O)CC3)nc(OC)c2)ncc1C(F)(F)F` [Compound I-292], the EC50 is under 100 nM.
On the same count and under the same terms, under `C=CC(=O)Nc1ccccc1Nc1nc(Nc2cc(OC)nc(N3CCN(C)CC3)c2)ncc1C(F)(F)F` [Compound I-324, N-(2-((2-((2-methoxy-6-(4-methylpiperazin-1-yl)pyridin-4-yl)amino)-5-(trifluoromethyl)pyrimidin-4-yl)amino)phenyl)acrylamide] stands 101 to 500 nM; under `C=CC(=O)Nc1cc(C)ccc1Nc1nc(Nc2cc(N[C@H]3CC[C@@H](O)CC3)nc(OC)c2)ncc1C(F)(F)F` [Compound I-326, N-(2-((2-((2-((cis-4-hydroxycyclohexyl)amino)-6-methoxypyridin-4-yl)amino)-5-(trifluoromethyl)pyrimidin-4-yl)amino)-5-methylphenyl)acrylamide], under 100 nM; under `C=CC(=O)Nc1cc(C)ccc1Nc1nc(Nc2cc(OC)cc(OC)c2)ncc1C(F)(F)F` [Compound I-339, N-(2-((2-((3,5-dimethoxyphenyl)amino)-5-(trifluoromethyl)pyrimidin-4-yl)amino)-5-methylphenyl)acrylamide], 501 to 999 nM.
